According to patent US12180226B2, “Spirotricycle RIPK1 inhibitors and methods of uses thereof” (Merck Sharp & Dohme LLC, priority 2021, dated 2024):
Counter-ions that a name gives are not always drawn.

Molecular target: RIPK1 (recombinant GST-RIPK1 kinase domain, residues 1-327) (Homo sapiens (Human), UniProt Q13546)
Assay: RIPK1-ADP-Glo Enzymatic Assay
Type: biochemical
Conditions: ADP-Glo; 25 nM GST-RIPK1, 300 μM ATP; assay lower limit ~25 nM; read-out: RIPK1 V0 Ec50
Summary of the method: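 GST-tagged kinase domain (residues 1-327, Sf21-expressed), 25 nM, pre-incubated 30 min with compound at ambient temperature, then reacted 150 min with 300 μM ATP and 3 μM dephosphorylated MBP in HEPES pH 7.3 buffer. ADP measured by ADP-Glo luminescence; EC50 from ten-point titration (top 100000 nM), four-parameter fit.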

RIPK1 (recombinant GST-RIPK1 kinase domain, residues 1-327), sequence (Q13546 1-327): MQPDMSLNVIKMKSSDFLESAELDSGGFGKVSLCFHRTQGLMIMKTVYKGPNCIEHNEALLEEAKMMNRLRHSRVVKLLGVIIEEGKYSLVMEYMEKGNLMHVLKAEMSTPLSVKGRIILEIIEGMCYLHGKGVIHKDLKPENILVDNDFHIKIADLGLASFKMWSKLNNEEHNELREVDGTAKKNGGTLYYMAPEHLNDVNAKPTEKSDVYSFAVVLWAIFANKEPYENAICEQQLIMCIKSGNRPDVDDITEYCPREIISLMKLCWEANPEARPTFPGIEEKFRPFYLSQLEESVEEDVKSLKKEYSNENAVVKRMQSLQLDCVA

Row | SMILES | EC50
1 | O=C1N2[C@@H](CC[C@H]2c2ccccc2F)OC12CN(CCc1ccccc1)C2 [Example 22.8, (5′S,7a′R)-5′-(2-fluorophenyl)-1-(2-phenylethyl)tetrahydro-3′H-spiro[azetidine-3,2′-pyrrolo[2,1-b][1,3]oxazol]-3′-one] | 348 nM
2 | O=C1N2C(CCC2c2cccc(F)c2F)OC12CCN(c1ccnc3ccnn13)CC2 (centres unmarked) [Example 20.7, 5′-(2,3-difluorophenyl)-1-(pyrazolo[1,5-a]pyrimidin-7-yl)tetrahydro-3′H-spiro[piperidine-4,2′-pyrrolo[2,1-b][1,3]oxazol]-3′-one] | < 25 nM
3 | O=C(c1ccn(C(F)F)n1)N1CCC2(CC1)O[C@@H]1CC[C@@H](c3cc(F)cc(F)c3)N1C2=O [Example 5.41] | 129 nM
4 | O=C(c1ccc(O)cc1F)N1CCC2(CC1)O[C@@H]1CC[C@@H](c3cc(F)cc(F)c3)N1C2=O [Example 5.55, (5′S,7a′R)-5′-(3,5-difluoro-phenyl)-1-(2-fluoro-4-hydroxybenzoyl)tetrahydro-3′H-spiro[piperidine-4,2′-pyrrolo[2,1-b]oxazol]-3'-one] | 26.2 nM
5 | O=C(c1nc2ccncc2s1)N1CCC2(CC1)O[C@@H]1CC[C@@H](c3cc(F)cc(F)c3)N1C2=O [Example 6.23, (5′S,7a′R)-5′-(3,5-difluorophenyl)-1-([1,3]thiazolo[5,4-c]-pyridine-2-carbonyl) tetrahydro-3′H-spiro [piperidine-4,2′-pyrrolo[2,1-b][1,3]oxazol]-3′-one] | 96.4 nM
6 | O=C(c1cc(F)c(F)cc1F)N1CCC2(CC1)O[C@@H]1CC[C@@H](c3ccccc3)N1C2=O [Example 5.10, (5′S,7a′R)-5′-phenyl-1-(2,4,5-trifluorobenzene-1-carbonyl)tetrahydro-3′H-spiro[piperidine-4,2′-pyrrolo[2,1-b][1,3]oxazol]-3′-one] | < 25 nM
7 | O=C(c1cccc(Cl)c1F)N1CCC2(CC1)O[C@@H]1CC[C@@H](c3cc(F)cc(F)c3)N1C2=O [Example 5.60, (5′S,7a′R)-1-(3-chloro-2-fluorobenzoyl)-5′-(3,5-difluorophenyl)tetrahydro-3′H-spiro[piperidine-4,2′-pyrrolo[2,1-b]oxazol]-3′-one] | < 25 nM
8 | O=C1N2[C@@H](CC[C@H]2c2ccccc2)OC12CCN(c1cccc3ncnn13)CC2F (single isomer, unassigned) [Example 13.17, (3[R or S], 4[S or R], 5′S,7a′R)-1-([1,2,4]triazolo[1,5-a]pyridin-5-yl)-3-fluoro-5′-phenyltetrahydro-3′H-spiro[piperidine-4,2′-pyrrolo[2,1-b]oxazol]-3′-one, TFA salt] | < 25 nM
9 | N#Cc1ccc(N2CCC3(CC2)S[C@@H]2CC[C@@H](c4ccccc4)N2C3=O)n2nccc12 [Example 4.145, 7-[(5′S,7a′R)-3′-oxo-5′-phenyltetrahydro-1H,3′H-spiro[piperidine-4,2′-pyrrolo[2,1-b] [1,3]thiazol]-1-yl]pyrazolo[1,5-a] pyridine-4-carbonitrile] | < 25 nM
10 | O=C(c1nc(Br)ccc1F)N1CCC2(CC1)O[C@@H]1CC[C@@H](c3cc(F)cc(F)c3)N1C2=O [Example 6.82] | < 25 nM
11 | O=C(c1cc(F)ccc1Cl)N1CCC2(CC1)O[C@@H]1CC[C@@H](c3ccccc3F)N1C2=O [Example 1.15, (5′S,7a′R)-1-(2-chloro-5-fluorobenzoyl)-5′-(2-fluorophenyl)tetrahydro-3′H-spiro[piperidine-4,2′-pyrrolo[2,1-b]oxazol]-3′-one] | 33.4 nM
12 | O=C(c1ccccc1)N1CCC2(CC1)O[C@@H]1CC[C@@H](c3cc(F)cc(F)c3)N1C2=O [Example 1.1, (5′S,7a′R)-1-Benzoyl-5′-(3,5-difluorophenyl)tetrahydro-3′H-spiro[piperidine-4,2′-pyrrolo[2,1-b]oxazol]-3′-one] | < 25 nM
13 | COc1ccc(F)c(C(=O)N2CCC3(CC2)O[C@@H]2CC[C@@H](c4cccc(F)c4)N2C3=O)c1 [Example 6.131, (5′S,7a′R)-1-(2-fluoro-5-methoxybenzene-1-carbonyl)-5′-(3-fluoro-phenyl)tetrahydro-3′H-spiro[piperidine-4,2′-pyrrolo[2,1-b] [1,3]oxazol]-3′-one] | < 25 nM
14 | COc1cccc(C(=O)N2CCC3(CC2)O[C@@H]2CC[C@@H](c4cc(F)cc(F)c4)N2C3=O)c1 [Example 6.10, (5′S,7a′R)-5′-(3,5-difluorophenyl)-1-(3-methoxybenzene-1-carbonyl)tetrahydro-3′H-spiro[piperidine-4,2′-pyrrolo[2,1-b] [1,3]oxazol]-3′-one] | < 25 nM
15 | O=C(c1ccn2nncc2c1)N1CCC2(CC1)O[C@@H]1CC[C@@H](c3cc(F)cc(F)c3)N1C2=O [Example 6.22, (5′S,7a′R)-5′-(3,5-difluorophenyl)-1-([1,2,3]triazolo[1,5-a]pyridine-5-carbon-yl)tetrahydro-3′H-spiro[piperidine-4,2′-pyrrolo[2,1-b][1,3]oxazol]-3′-one] | 30.5 nM
16 | O=C1N2[C@@H](CC[C@H]2c2ccccc2)OC12CCN(c1cc(C(F)(F)F)ncn1)CC2 [Example 4.33, (5′S,7a′R)-5′-phenyl-1-[6-(trifluoromethyl)pyrimidin-4-yl]tetrahydro-3′H-spiro[piperidine-4,2′-pyrrolo[2,1-b] [1,3]oxazol]-3′-one] | 50 nM
17 | O=C1N2[C@@H](CC[C@H]2c2cccc(F)c2)OC12CCN(c1cc(-c3ccccc3)ncn1)CC2 [Example 4.125, (5′S,7a′R)-5′-(3-fluorophenyl)-1-(6-phenylpyrimidin-4-yl)tetrahydro-3′H-spiro[piperidine-4,2′-pyrrolo[2,1-b] [1,3]oxazol]-3′-one] | < 25 nM
18 | O=C1N2[C@@H](CC[C@H]2c2ccccc2)OC12CCN(c1ccc(-c3nnc(C(F)(F)F)o3)cn1)CC2 [Example 4.165, (5′S,7a′R)-5′-phenyl-1-{5-[5-(trifluoromethyl)-1,3,4-oxadiazol-2-yl]pyridin-2-yl}tetrahydro-3′H-spiro[piperidine-4,2′-pyrrolo[2,1-b] [1,3]oxazol]-3′-one] | 144 nM
19 | CC(C)(O)C#Cc1cccc(C(=O)N2CCC3(CC2)O[C@@H]2CC[C@@H](c4cc(F)cc(F)c4)N2C3=O)c1 [Example 5.24, (5′S,7a′R)-5′-(3,5-difluoro-phenyl)-1-(3-(3-hydroxy-3-methylbut-1-yn-1-yl)-benzoyl)tetrahydro-3′H-spiro[piperidine-4,2′-pyrrolo[2,1-b]oxazol]-3′-one] | < 25 nM
20 | CC1C[C@@]2(CCN1C(=O)c1ccccc1)O[C@@H]1CC[C@@H](c3cccc(F)c3)N1C2=O (stereo partly drawn) [Example 6.160, (4R,5′S,7a′R)-1-(benzenecarbonyl)-5′-(3-fluorophenyl)-2-methyltetrahydro-3′H-spiro[piperidine-4,2′-pyrrolo[2,1-b] [1,3]oxazol]-3′-one] | < 25 nM
21 | Cc1ccc([C@@H]2CC[C@H]3OC4(CCN(C(=O)c5ccccc5)CC4)C(=O)N32)c(F)c1 [Example 17.11, (5′S,7a′R)-1-benzoyl-5′-(2-fluoro-4-methylphenyl)tetrahydro-3′H-spiro[piperidine-4,2′-pyrrolo[2,1-b]oxazol]-3′-one] | < 25 nM
22 | N#Cc1cnc(N2CCC3(CC2)O[C@@H]2CC[C@@H](c4ccccc4F)N2C3=O)nc1 [Example 4.106, 2-((5′S,7a′R)-5′-(2-fluorophenyl)-3′-oxotetrahydro-3′H-spiro[piperidine-4,2′-pyrrolo[2,1-b]oxazol]-1-yl)pyrimidine-5-carbonitrile] | 30.5 nM
23 | O=C1N2[C@@H](CC[C@H]2c2cc(F)cc(F)c2)OC12CN(c1ccnc3ccnn13)C2 [Example 4.134, (5′S,7a′R)-5′-(3,5-difluorophenyl)-1-(pyrazolo[1,5-a]pyrimidin-7-yl)tetrahydro-3′H-spiro[azetidine-3,2′-pyrrolo[2,1-b] [1,3]oxazol]-3′-one] | 27.3 nM
24 | CC1(NC(=O)c2nc(N3CCC4(CC3)O[C@@H]3CC[C@@H](c5cc(F)cc(F)c5)N3C4=O)ncc2F)CC1 [Example 7.11, 2-[(5′S,7a′R)-5′-(3,5-difluorophenyl)-3′-oxotetrahydro-1H,3′H-spiro[piperidine-4,2′-pyrrolo[2,1-b][1,3]oxazol]-1-yl]-5-fluoro-N-(1-methyl-cyclopropyl)pyrimidine-4-carboxamide] | 92.2 nM
25 | CC1CC2(CCN1C(=O)c1ncccc1F)O[C@@H]1CC[C@@H](c3cccc(F)c3)N1C2=O (stereo partly drawn) [Example 6.162, (4R,5′S,7a′R)-5′-(3-fluorophenyl)-1-(3-fluoropyridine-2-carbonyl)-2-methyl-tetrahydro-3′H-spiro [piperidine-4,2′-pyrrolo[2,1-b][1,3]oxazol]-3′-one] | 38 nM
26 | N#Cc1ccc(N2CCC3(CC2)O[C@@H]2CC[C@@H](c4ccccc4)N2C3=O)n2ncc(Br)c12 [Example 4.183, 3-bromo-7-[(5′S,7a′R)-3′-oxo-5′-phenyltetrahydro-1H,3′H-spiro[piperidine-4,2′-pyrrolo[2,1-b] [1,3]oxazol]-1-yl]pyrazolo[1,5-a] pyridine-4-carbonitrile] | < 25 nM
27 | O=C1N2[C@@H](CC[C@H]2c2ccccc2F)OC12CN(c1ccnc3ccnn13)C2 [Example 4.108, (5′S,7a′R)-5′-(2-fluorophenyl)-1-(pyrazolo[1,5-a]pyrimidin-7-yl)tetrahydro-3′H-spiro[azetidine-3,2′-pyrrolo[2,1-b]oxazol]-3′-one] | 26.9 nM
28 | N#Cc1ccc(N2CCC3(CC2)O[C@@H]2CC[C@@H](c4ccccc4)N2C3=O)n2ncc(Cl)c12 [Example 4.182, 3-chloro-7-[(5′S,7a′R)-3′-oxo-5′-phenyltetrahydro-1H,3′H-spiro[piperidine-4,2′-pyrrolo[2,1-b] [1,3]oxazol]-1-yl]pyrazolo[1,5-a] pyridine-4-carbonitrile] | < 25 nM
29 | O=C1N2[C@@H](CC[C@H]2c2ccccc2)OC12CCN(c1cc(-c3ccccc3)ncn1)CC2 [Example 4.32, (5′S,7a′R)-5′-phenyl-1-(6-phenylpyrimidin-4-yl)tetrahydro-3′H-spiro[piperidine-4,2′-pyrrolo[2,1-b] [1,3]oxazol]-3′-one] | < 25 nM
